Experimental findings from patent publication US9890202B2, “Peptides based on the transmembrane domain of a toll-like receptor (TLR) for treatment of TLR-mediated diseases” (Yeda Research and Development Co. Ltd., priority 2010, dated 2018) are described below.

A short description of one data set: XTT cytotoxicity assay. Type of data set: cell-based. The settings on record: mouse, RAW264.7 murine macrophages, RAW264.7 cells, 2 hours incubation, 0.78-100 μM, read-out: LC50 (Lethal Concentration at which 50% of cells die). The method, then: 1×10^4 cells (RAW264.7 murine macrophages, ATCC® Number-TIB-71) per well were grown over night on a 96-well plate. The following day, the media were replaced with 90 μl fresh culture medium and 10 μl solution buffer containing different concentrations of the different peptides mTLR2 TM N′-CtoA (SEQ ID NO:88), mTLR2 TM C′-CtoA (SEQ ID NO:86), mTLR1 TM N′ (SEQ ID NO:77) and mTLR1 TM C′-CtoA (SEQ ID NO:83). Peptide concentrations range from 0.78-100 μM. The cells were then incubated for 2 hours before adding to each well 50 μl of 2,3-bis[2-methoxy-4-nitro-5-sulfophenyl]-2H-tetrazolium-5-carboxanilide inner salt (XTT) reaction solution (Biological Industries). Viability was determined as described previously (Papo et al., 2004 and Papo et al., 2006). The LC50 (the concentration at which 50% of the cells die) for each peptide was obtained from the dose-dependent cell viability curves.
In general terms: Formazan colour is commonly taken as a measure of viable cells.

The subject of the next data set is TLR4. The data set is described as follows: NFkB luciferase reporter in PC3 cells activated with LPS. The format is cell-based, human. The settings on record: peptide 20 μM, LPS 1 μg/ml. The method, then: (§1) Cells were transfected with a luciferase plasmid under the transcriptional control of NFkB. Upon activation, NFkB trans-locates to the nucleus and induces the expression of luciferase. Cells were activated in the presence of LTA (50 μg/ml) or LPS (1 μg/ml) for 24 hours and were incubated for 2 hours with the hTLR2 TM C′ peptide (SEQ ID NO:83) ([…]) prior to the addition of the activator and washed twice with PBS. Detection of Luc expression was performed by the Steady-Glo assay kit.
(§2) The NFkB responsive element has been widely researched and is known to serve as a specific indication for the presence of the NFkB molecule inside the nucleus. Such a translocation occurs upon activation of the signaling cascade of TLRs, which leads to targeted transcription. This DNA element was introduced into a Luciferase expressing plasmid upstream to the gene thus generating a reporter plasmid for the presence of NFkB in the nucleus. Cells were transfected with the plasmid and 24 hours later were treated with LPS/LTA to induce the signaling cascade through TLR4 and TLR2, respectively. To validate activation, the levels of Luc expression were evaluated using the Steady-Glo kit (Promega) according to manufactures instructions.
In general terms: Reporter assays use an easily measured gene product as a stand-in for the process of interest.

Data set [1] relates to TLR2. Nature of the data set: NFkB luciferase reporter in PC3 cells activated with LTA. The format is cell-based, human. The settings on record: peptide 20 μM, LTA 50 μg/ml. The method, then:
as §1, §2

Another data set deals with PC3. The data set is described as follows: Toxicity to PC3 cell line. The settings on record: up to 100 μM (maximal concentration tested). The format is cell-based, human. The method, then:
(§3) We synthesized peptides corresponding to either the N-terminus or C-terminus domains of the TM domains of human TLR1, 2 and 5. Each TM domain was divided into two overlapping sequences (Table 2). Activity and toxicity experiments were performed on a peptide corresponding to the C-terminus domain of the TM domain of human TLR2, including the adjacent 5 amino acids from the putative intracellular domain (SEQ ID NO:83, hTLR2-C in Table 2 below, extended with two lysine residues at each of its termini to increase solubility). The peptide was not toxic to either PC3 or LNCaP cell lines at a concentration of up to 100 μM (the maximal concentration tested, data not shown).

The subject of another data set is LNCaP. Nature of the data set: Toxicity to LNCaP cell line. Type of data set: cell-based, human. The conditions noted are these: up to 100 μM (maximal concentration tested). The method, then: as §3
The next data set relates to PC3 cells. Nature of the data set: mRNA expression of TGFβ and VEGF in cells activated with LPS/LTA. The format is cell-based, human. The settings on record: peptide 20 μM, LPS/LTA stimulation. The method, then:
FIGS. 13A-B show mRNA expression of TGFβ (B) and VEGF (A) in LNCaP and PC3 cells in the absence or presence of LPS/LTA and the peptide hTLR2 TM C′ (SEQ ID NO:83) at a concentration of 20 μM.
One of the main features of metastatic cells is their ability to influence their environment due to the secretion of various cytokines. Two of the most influential cytokines are VEGF which induces the formation of blood vessels, and TGFβ which e.g. induces tolerance of immune cells and inhibits apoptosis. We therefore determined the expression of the mRNA of these cytokines in the cells upon their activation with LPS and LTA and the effect of the peptide on the activation. […] These findings lead us to the hypothesis that the presence of the TLRs on PC3 cells contribute to the severity (aggressiveness) of the cancer and its ability to form metastases. Thus, the TLR TM peptides of the invention can be used as new diagnostic biomarkers, which can indicate the rate of growth and the ability of the cells to form metastases.

Data set [2] concerns TLR2. Nature of the data set: Murine model of acute septic shock caused by LTA (TLR2 hyperactivation). Type of data set: in vivo, mice. The conditions noted are these: during the whole experiment. The method, then: To examine the effect of TLR TM peptides on acute septic shock driven by TLR2 hyperactivation we have used a murine model as previously described (Meng et al., 2004). Briefly, 12 weeks old C57 Black female mice (supplied by Harlan) were treated with 100 μg of LTA injected IP in a saline solution (pH 6.5) containing 200 μg/ml of D-galactoseamine (Calbiochem). Treated mice received two injections of peptide at doses of 1, 5 and 10 mg/kg. First injection was given at the time of LTA injection, second injection was given 2 hrs (1 mg/kg) or 12 hrs (5 and 10 mg/kg) later. Animals were monitored for survival for 96 hours after LTA injection. Peptides used for in-vivo experiments were treated twice with 20% acetic acid in order to replace the trifluoroacetate anion added during HPLC purification. For all groups n=8.
In order to test the activity of our peptides in-vivo, we have used a murine model for acute septic shock caused by hyperactivation of TLR2. Mice were injected i.p. with 100 μg of LTA and then treated with mTLR2 TM C′-CtoA peptide (SEQ ID NO:86) in different regimes (see materials and methods section (xi)) or with saline only.

Data set [3] relates to mTLR1 TM peptides (fluorescein labeled donors). Nature of the data set: FRET between fluorescein and rhodamine labeled TM peptides in PC:Cholesterol LUVs. Type of data set: binding, mouse. The settings on record: rhodamine conjugated acceptor added to fluorescein TLR1 TM donors. The method, then: Large unilamellar vesicles (LUVs) composed of phosphatidylcholine (PC) and cholesterol (10:1, w/w), were prepared using the extrusion method as described previously (Cohen et al, 2008). The fluorescence experiments were performed with pairs of peptides using fluorescein labeled peptides as donors and rhodamine labeled peptides as acceptors. Fluorescence spectra were obtained at room temperature, with excitation set at 494 nm (10 nm slit) and emission scan at 500-600 nm (10 nm slits), by a Cary eclipse fluorescence spectrophotometer (Varian Inc., Palo Alto, Calif.). In a typical experiment, a fluorescein labeled peptide was first added from a stock solution in DMSO (final concentration of 0.1 μM peptide and 0.25% (v/v) DMSO) to a solution containing PC:Cholesterol LUVs (100 μM) in HEPES buffer. This was followed by the successive addition of rhodamine labeled peptides to a final concentration ranging from 0.025 to 0.4 μM. Fluorescence spectra were obtained before and after the addition of the rhodamine labeled peptides. Fluorescence values were corrected by subtracting the changes in emission obtained by adding HEPES only. […]
Fluorescence Resonance Energy Transfer (FRET) analysis was used for exploring the interactions of the synthetic TM peptides within large unilameler vesicles (LUVs). […]

Ends that are not written are not given here.

In the case of “KKALVSGVAAALLLLILLVGKK-NH2 [mTLR2 N′ TM (C to A)]”, the CC50 at 2 h in the data set “XTT cytotoxicity assay” is greater than 100 µM.

Take “KKLAVTGAFLALYFDLPWKK-NH2 [mTLR1 C′ TM (C to A)]”: the CC50 at 2 h in “XTT cytotoxicity assay” amounted to 50 µM.

Take “KKLILLVGALCHHFHGLWKK-NH2 [mTLR2 C′ TM, kkLILLVGALCHHFHGLWkk]”: the CC50 at 2 h in “XTT cytotoxicity assay” was 50 µM.

Consider “KKLAVTGAFLASYFDLPWKK-NH2 [mTLR1 C′ TM (C to A + L605S), kkLAVTGAFLASYFDLPWkk]”, for which, in “XTT cytotoxicity assay”, the CC50 at 2 h was greater than 100 µM.

Turning to KKLILLTGVLCHRFHGLWKK-NH2 [hTLR2 TM C′], the “inhibition of activation (Luc expression)” value with TLR4 was “could not inhibit”. The “inhibition of Luc expression” value with TLR2 [1] turned out to be 40%. Moreover, the toxicity result in the data set on PC3 and in the data set with LNCaP was “not toxic” each time. Also, the “levels of expression of TGFβ and VEGF mRNA” value in the data set on PC3 cells is “drop in the levels of expression”.

Turning to “KKLLTVTIGATMLVLAVTGAKK-NH2 [mTLR1 N′ TM]”, the CC50 at 2 h in “XTT cytotoxicity assay” was greater than 100 µM.

As to “KKLILLVGALAHHFHGLWKK-NH2 [mTLR2 C′ TM (C to A)]”, in “XTT cytotoxicity assay”, the CC50 at 2 h came to 50 µM. Moreover, in the data set with TLR2 [2], the “adverse effects in treated mice” value is reported as “no noticeable adverse effects”.

With “KKLAVTGAFLCLYFDLPWKK-NH2 [mTLR1 C′ TM, kkLAVTGAFLCLYFDLPWkk]”, the CC50 at 2 h in “XTT cytotoxicity assay” was greater than 100 µM.

With “GLRILLLKV-NH2 (not fully specified; printed as GLRILLLKV-NH2) [Cp, the core TM peptide of TCRα, negative control]”, in data set [3], the “fluorescence signal decrease (FRET), negative control” value is on record as “no significant fluorescence signal decrease”.
